Measured values as given in patent US20250017859A1, “SOLID DISPERSION, PREPARATION METHOD, AND PHARMACEUTICAL COMPOSITION THEREOF” (Anxo Pharmaceutical Co., Ltd., priority 2023, published 2025).
Values after ≈ are worked out from the molar mass of the structure shown. Counter-ions that a name gives are not always drawn.

Columns and labels:
[1] = Dissolution test 1: solubility by paddle method in pH 6.0+0.01% SDS medium; format: physicochemical
Method: Dissolution tests of experimental group 1 to experimental group 28 produced by spray drying or hot melt extrusion, control group lurasidone HCl and lurasidone are performed to analyze the solubility of each experimental group and control group lurasidone HCl and lurasidone. The dissolution test is performed by paddle method in 500 mL of medium with a pH value of 6.0+0.01% SDS, in which a rotation speed is 100 rpm and a sampling time is 60 minutes.
For comparing the applicability of the carriers suitable for solid dispersion including lurasidone, solid dispersion of comparative group 1 (including crospovidone, a kind of common carrier ingredient) is prepared according to Example 1.2 (HME) and the weight ratio of table 12, and the solubility is tested according the abovementioned method of Example 1.3.1.

[2] = Animal test: pharmacokinetics in fasted rats; format: in vivo; conditions: male, Sprague-Dawley, rat, plasma; rats under fasting state; dose equal to 10 mg/kg lurasidone HCl
Method: Lurasidone HCl is used as control group, experimental groups 14-17, 22 and 28 are used as tested group, the pharmacokinetics of each group is evaluated in male Sprague-Dawley rats.
Specifically, control group and experimental groups 14-17, 22 and 28 are administrated to rats under fasting state, respectively, in which the dosage contains 10 mg/kg of lurasidone HCl or the amount of lurasidone equal to 10 mg/kg lurasidone HCl. The number of experimental rats in each group is three, and the sampling time is 0, 0.25, 0.5, 1, 1.5, 2, 4, 6, 8 and 24 hours for analyzing pharmacokinetic results, which are shown in table 15.

[3] = cited from earlier work

| Solubility ([1]; Table 11, paddle method, 500 mL medium pH 6.0+0.01% SDS, 100 rpm, sampling time 60 minutes, HCl) [µg/mL] | Solubility ([1]; Table 12, carrier comparison PVAP vs crospovidone, method of Example 1.3.1, HCl) [µg/mL] | AUC(0-inf) [2] [ng·h/mL] | Cmax [2] [ng/mL] | Solubility ([1]; Table 11, paddle method, 500 mL medium pH 6.0+0.01% SDS, 100 rpm, sampling time 60 minutes) [µg/mL] | Solubility ([1]; Table 12, carrier comparison PVAP vs crospovidone, method of Example 1.3.1) [µg/mL] | SMILES | solubility in water [3] |
| --- | --- | --- | --- | --- | --- | --- | --- |
| 0.46 | 0.46 | 102 | 32 |  |  | O=C1[C@@H]2[C@H]3CC[C@H](C3)[C@@H]2C(=O)N1C[C@@H]1CCCC[C@H]1CN1CCN(c2nsc3ccccc23)CC1 [Lurasidone HCl] |  |
|  |  |  |  | 0.09 (≈ 0.183 µM) | 0.09 (≈ 0.183 µM) | O=C1[C@@H]2[C@H]3CC[C@H](C3)[C@@H]2C(=O)N1C[C@@H]1CCCC[C@H]1CN1CCN(c2nsc3ccccc23)CC1 [Lurasidone] | lower than 0.1 mg/mL |
